Laboratory results published in ChEMBL document CHEMBL1201862, “PubChem BioAssay data set” (2004).
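1) Cells in 96-well plates. 2) Compound, 48 h, 5 concentrations. 3) Linear interpolation between surrounding doses. 4) Unreached endpoint = highest concentration. GI50 is the concentration that inhibits growth by half.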 Active and inactive are the calls of the source. Rule as the data show it: active = GI50 up to about 1.1 µM and inactive = higher.

Assays:
Test in all cases: growth of human tumour cells (NCI), 48 h
[1] = test system: 786-0
[2] = test system: ACHN
[3] = test system: EKVX
[4] = test system: HCC 2998
[5] = test system: HL-60
[6] = test system: HT-29
[7] = test system: KM12
[8] = test system: LOX IMVI
[9] = test system: MDA-MB-231
[10] = test system: MDA-MB-435
[11] = test system: Malme-3M
[12] = test system: PC-3
[13] = test system: RXF 393
[14] = test system: SK-MEL-5
[15] = test system: SNB-19
[16] = test system: SNB-75
[17] = test system: SF-539

| Compound | GI50 [1] | GI50 [2] | GI50 [3] | GI50 [4] | GI50 [5] | GI50 [6] | GI50 [7] | GI50 [8] | GI50 [9] | GI50 [10] | GI50 [11] | GI50 [12] | GI50 [13] | GI50 [14] | GI50 [15] | GI50 [16] | GI50 [17] |
| --- | --- | --- | --- | --- | --- | --- | --- | --- | --- | --- | --- | --- | --- | --- | --- | --- | --- |
| CC(C)(CC1(C)NC(=O)NC1=O)OCc1ccccc1 (centres undefined) | > 100 µM (inactive) | > 100 µM (inactive) | > 100 µM (inactive) | > 100 µM (inactive) | < 0.01 µM (active) | > 100 µM (inactive) | > 100 µM (inactive) | > 100 µM (inactive) | > 100 µM (inactive) | > 100 µM (inactive) | > 100 µM (inactive) | > 100 µM (inactive) | > 100 µM (inactive) | > 100 µM (inactive) | > 100 µM (inactive) | > 100 µM (inactive) |  |
| CN1CN(c2ccccc2)C2(CCN(CCCCCCF)CC2)C1=O | > 100 µM (inactive) | 31.6 µM (inactive) | 48.6 µM (inactive) |  | > 100 µM (inactive) | 30.9 µM (inactive) | > 100 µM (inactive) | > 100 µM (inactive) | 81.1 µM (inactive) | > 100 µM (inactive) | > 100 µM (inactive) | > 100 µM (inactive) | > 100 µM (inactive) | 38.1 µM (inactive) | 71.1 µM (inactive) | > 100 µM (inactive) | 28.8 µM (inactive) |
| CN(C)CCN1C(=O)c2ccccc2C1(O)c1ccc(Cl)cc1 (centres undefined) | > 100 µM (inactive) | > 100 µM (inactive) | > 100 µM (inactive) | 62.7 µM (inactive) | 26.4 µM (inactive) | 42.7 µM (inactive) | 69.5 µM (inactive) |  | 44.6 µM (inactive) | > 100 µM (inactive) | 28.6 µM (inactive) | 50.1 µM (inactive) | 15.7 µM (inactive) | 24 µM (inactive) | > 100 µM (inactive) | 83.4 µM (inactive) |  |
| COc1ccc(C2(CC(C)O)SCCCS2)cc1 (centres undefined) | > 100 µM (inactive) | > 100 µM (inactive) | > 100 µM (inactive) | > 100 µM (inactive) | 37.2 µM (inactive) | > 100 µM (inactive) | > 100 µM (inactive) |  | > 100 µM (inactive) | > 100 µM (inactive) | > 100 µM (inactive) | 92.7 µM (inactive) | > 100 µM (inactive) | > 100 µM (inactive) | > 100 µM (inactive) | > 100 µM (inactive) | > 100 µM (inactive) |
| CCC1(O)CC(CCN(Cc2ccccc2)C(=O)OCc2ccccc2)C(OCc2ccccc2)C1O (centres undefined) | 17.2 µM (inactive) | 17 µM (inactive) | 15.7 µM (inactive) | 14 µM (inactive) |  | 15.3 µM (inactive) | 12.7 µM (inactive) | 21.9 µM (inactive) | 27.2 µM (inactive) | 18.4 µM (inactive) |  | 10.7 µM (inactive) | 16.3 µM (inactive) | 15.1 µM (inactive) | 15.6 µM (inactive) | 12.5 µM (inactive) |  |
| Oc1cccc(-c2ccc3c4c2O[C@H]2c5[nH]c6ccccc6c5C[C@@]5(O)[C@@H](C3)N(CC3CC3)CC[C@]425)c1 | 1.62 µM (inactive) | 2.23 µM (inactive) | 13.5 µM (inactive) |  | 1.65 µM (inactive) | 1.7 µM (inactive) | 1.98 µM (inactive) | 1.8 µM (inactive) | 2.17 µM (inactive) | 1.72 µM (inactive) | 1.86 µM (inactive) | 1.98 µM (inactive) | 1.35 µM (inactive) | 3.48 µM (inactive) | 1.64 µM (inactive) |  | 1.68 µM (inactive) |
| CCCCCCCCCCCCCCCCCCNc1ccn(C2OC(COP(=O)(O)OCC3OC(n4cc(C)c(=O)[nH]c4=O)CC3O)C(O)C2O)c(=O)n1 (centres undefined) | 18 µM (inactive) | 21.1 µM (inactive) | 19.4 µM (inactive) | 16.7 µM (inactive) |  | 16.7 µM (inactive) | 18.3 µM (inactive) | 17.7 µM (inactive) | 14.6 µM (inactive) | 16.9 µM (inactive) | 16.6 µM (inactive) | 3.1 µM (inactive) | 12 µM (inactive) | 14.9 µM (inactive) | 15.4 µM (inactive) | 17.5 µM (inactive) | 17.3 µM (inactive) |
| ClC1=NN=C(c2c[nH]c3ccccc23)CC1NCc1ccccc1 (centres undefined) | > 100 µM (inactive) | > 100 µM (inactive) | > 100 µM (inactive) |  | > 100 µM (inactive) | > 100 µM (inactive) | > 100 µM (inactive) | > 100 µM (inactive) | > 100 µM (inactive) | > 100 µM (inactive) | > 100 µM (inactive) | > 100 µM (inactive) | > 100 µM (inactive) | > 100 µM (inactive) | > 100 µM (inactive) | > 100 µM (inactive) | > 100 µM (inactive) |
| COc1cc(C(O)CCBr)c(OC)cc1C (centres undefined) | 8.32 µM (inactive) | 35.7 µM (inactive) | > 100 µM (inactive) |  | > 24.7 µM (inactive) | 6.17 µM (inactive) | 29.9 µM (inactive) | 8.95 µM (inactive) | 21.2 µM (inactive) | 4.3 µM (inactive) | 22.5 µM (inactive) | 6.65 µM (inactive) | 37.2 µM (inactive) | 6.18 µM (inactive) | > 75.5 µM (inactive) | 30.1 µM (inactive) | 8.17 µM (inactive) |
| COc1ccc(/N=C2/SC(=N/N=c3\sc4ccccc4n3C)S/C2=N/c2ccc(OC)cc2)cc1 | 47.3 µM (inactive) | 36.8 µM (inactive) | > 100 µM (inactive) | > 100 µM (inactive) |  | > 100 µM (inactive) | > 100 µM (inactive) |  | 2.97 µM (inactive) | > 100 µM (inactive) | > 100 µM (inactive) | > 100 µM (inactive) | 34 µM (inactive) | 98.9 µM (inactive) | > 100 µM (inactive) | 24.6 µM (inactive) | > 100 µM (inactive) |
| O=c1[nH]cnc2c1ncn2[C@H]1CO[C@@H](CO)[C@@H]1O | > 100 µM (inactive) | > 100 µM (inactive) | > 100 µM (inactive) | > 100 µM (inactive) |  | > 100 µM (inactive) | > 100 µM (inactive) | > 100 µM (inactive) | > 100 µM (inactive) | > 100 µM (inactive) | > 100 µM (inactive) | > 100 µM (inactive) | > 100 µM (inactive) | > 100 µM (inactive) |  | > 100 µM (inactive) | > 100 µM (inactive) |
| CCN(CC)c1ccc(C2SCC(=O)N2c2ccc(NC(=O)c3ccc(N4C(=O)CSC4c4ccc(N(CC)CC)cc4)cc3)cc2)cc1 (centres undefined) | > 100 µM (inactive) | > 100 µM (inactive) | > 100 µM (inactive) | > 100 µM (inactive) |  | 75 µM (inactive) | 96.8 µM (inactive) | 67 µM (inactive) | > 100 µM (inactive) | > 100 µM (inactive) | > 100 µM (inactive) | > 100 µM (inactive) | > 100 µM (inactive) | > 100 µM (inactive) | > 100 µM (inactive) | > 100 µM (inactive) | > 100 µM (inactive) |
| CC(=O)OCCCC(NC(=O)OC(C)(C)C)C(=O)NC(CCCOC(C)=O)C(=O)NC(Cc1ccc([N+](=O)[O-])cc1)C(=O)NCC(=O)OCc1ccccc1 (centres undefined) | 18 µM (inactive) | 17.4 µM (inactive) | 18.3 µM (inactive) | 18.9 µM (inactive) | 3.15 µM (inactive) | 17.9 µM (inactive) | 15.6 µM (inactive) | 13.1 µM (inactive) | 13 µM (inactive) | 17.3 µM (inactive) | 19.9 µM (inactive) | 17.2 µM (inactive) | 13.1 µM (inactive) | 16.4 µM (inactive) | 17.8 µM (inactive) |  | 15.3 µM (inactive) |
| Cc1ccc(OCC2OC(C#N)C(Oc3ccc(C)cc3)C2Oc2ccc(C)cc2)cc1 (centres undefined) | > 100 µM (inactive) |  | > 100 µM (inactive) | > 100 µM (inactive) | > 100 µM (inactive) | > 100 µM (inactive) | > 100 µM (inactive) |  | > 100 µM (inactive) | > 100 µM (inactive) |  | > 100 µM (inactive) | > 100 µM (inactive) | > 100 µM (inactive) | > 100 µM (inactive) | 6.79 µM (inactive) | > 100 µM (inactive) |
| O=S(=O)(O)CCSSCCS(=O)(=O)O | > 1000 µM (inactive) | > 1000 µM (inactive) | > 1000 µM (inactive) | > 1000 µM (inactive) | > 1000 µM (inactive) | > 1000 µM (inactive) | > 1000 µM (inactive) | > 1000 µM (inactive) | > 1000 µM (inactive) | > 1000 µM (inactive) | > 1000 µM (inactive) | > 1000 µM (inactive) | > 1000 µM (inactive) |  | > 1000 µM (inactive) | > 1000 µM (inactive) | > 1000 µM (inactive) |
| Cc1ccc(S(=O)(=O)n2cc(-c3cc(C(F)(F)F)ccn3)c3cc(Br)ccc32)cc1 | 13.9 µM (inactive) | 11.4 µM (inactive) | 29.6 µM (inactive) | 16.4 µM (inactive) | > 100 µM (inactive) | 49.1 µM (inactive) | 38.9 µM (inactive) | 28.1 µM (inactive) | 17.3 µM (inactive) | 46.2 µM (inactive) | 20.7 µM (inactive) | 18.2 µM (inactive) | 17.8 µM (inactive) | 24.3 µM (inactive) | 16 µM (inactive) |  | 17.1 µM (inactive) |
| O=S(=O)(N/C(=N\O)Nc1ccc(Cl)cc1)c1cc(S(=O)(=O)c2ccccc2)cs1 | 15.7 µM (inactive) | 16.1 µM (inactive) | 16.3 µM (inactive) | 13.4 µM (inactive) | 2.81 µM (inactive) | 21 µM (inactive) | 22.2 µM (inactive) | 15.5 µM (inactive) | 20.3 µM (inactive) | 13.8 µM (inactive) | 14.2 µM (inactive) | 15 µM (inactive) | 16.3 µM (inactive) | 9.08 µM (inactive) | 17.9 µM (inactive) |  | 14.3 µM (inactive) |
